Reference: publication PMC11539907, “Cytotoxicity of norstictic acid derivatives, a depsidone from Ramalina anceps Nyl” (Turkish Journal of Chemistry, 2024)
Entries after “also recorded” stand apart in the source; their conditions may differ. Like-named read-outs stand apart in the source and are kept apart here.

Assays:
[1] = tested on: 786-0 (kidney carcinoma) cells; experiment: sulforhodamine B (SRB) cytotoxicity assay, 786-0; assay type: cell-based; conditions: for selectivity index (SI): GI50 on 3T3 cells divided by GI50 on 786-0; for GI50: Homo sapiens, 786-0 cells, SRB assay, read-out: growth inhibition (GI50)
Text: (§1) MCF7 (ATCC HTB-22, breast adenocarcinoma), 786-0 (ATCC CRL-1932, renal cell adenocarcinoma), PC-03 (ATCC CRL-1435, prostatic adenocarcinoma), HT-29 (ATCCHTB-38, colorectal adenocarcinoma), and HEP2 (ATCC CCL-23, laryngeal carcinoma) cells donated by Dr. João Ernesto de Carvalho (CPQBA – UNICAMP), and NIH/3T3 cells (ATCC CRL-1658, mouse embryonic fibroblast), purchased from the Rio de Janeiro Cell Bank, were used for the evaluation of cytotoxic activity. Cell maintenance and treatment were performed as described by Freshney. The sulforhodamine B (SRB) assay was carried out according to Brandão et al. and Bogo et al..
(§2) The selectivity index (SI) measures a compound’s ability to target a neoplastic cell line rather than a normal cell line, indicating its potential for use in clinical trials. In the present study, the SI of each substance was calculated as the quotient of its GI50 value for normal NIH/3T3 cells divided by the GI50 value for a neoplastic cell line. SI values greater than 3.0 were considered significant.

[2] = tested on: MCF7 (breast carcinoma) cells; experiment: sulforhodamine B (SRB) cytotoxicity assay, MCF7; assay type: cell-based; conditions: for selectivity index (SI): GI50 on 3T3 cells divided by GI50 on MCF7; for GI50: Homo sapiens, MCF7 cells, SRB assay, read-out: growth inhibition (GI50)
Text: as §1, §2

[3] = tested on: HT-29 (colon carcinoma) cells; experiment: sulforhodamine B (SRB) cytotoxicity assay, HT-29; assay type: cell-based; conditions: for selectivity index (SI): GI50 on 3T3 cells divided by GI50 on HT-29; for GI50: Homo sapiens, HT-29 cells, SRB assay, read-out: growth inhibition (GI50)
Text: as §1, §2

[4] = tested on: PC-03 (prostate carcinoma) cells; experiment: sulforhodamine B (SRB) cytotoxicity assay, PC-03; assay type: cell-based; conditions: for selectivity index (SI): GI50 on 3T3 cells divided by GI50 on PC-03; for GI50: PC-03 cells, SRB assay, read-out: growth inhibition (GI50)
Text: as §1, §2

[5] = tested on: HEP2 (laryngeal carcinoma) cells; experiment: sulforhodamine B (SRB) cytotoxicity assay, HEP2; assay type: cell-based; conditions: for selectivity index (SI): GI50 on 3T3 cells divided by GI50 on HEP2; for GI50: Homo sapiens, HEp-2, HEP2 cells, SRB assay, read-out: growth inhibition (GI50)
Text: as §1, §2

[6] = tested on: B16-F10 (murine melanoma) cells; experiment: sulforhodamine B (SRB) cytotoxicity assay, B16-F10; assay type: cell-based; conditions: for selectivity index (SI): GI50 on 3T3 cells divided by GI50 on B16-F10; for GI50: Mus musculus, B16-F10 cells, SRB assay, read-out: growth inhibition (GI50)
Text: [Worded in the source for another cell line; this cell line is reported under the same test.] as §1, §2

[7] = tested on: UACC-62 (human melanoma) cells; experiment: sulforhodamine B (SRB) cytotoxicity assay, UACC-62; assay type: cell-based; conditions: for selectivity index (SI): GI50 on 3T3 cells divided by GI50 on UACC-62; for GI50: Homo sapiens, UACC-62 cells, SRB assay, read-out: growth inhibition (GI50)
Text: [Worded in the source for another cell line; this cell line is reported under the same test.] as §1, §2

[8] = tested on: NIH/3T3 (mouse embryonic fibroblast) cells; experiment: sulforhodamine B (SRB) cytotoxicity assay, NIH/3T3 normal cells; assay type: cell-based; conditions: for GI50: Mus musculus, NIH3T3, NIH/3T3 normal cells, SRB assay, read-out: growth inhibition (GI50)
Text: as §1, §2

[9] = tested on: UACC-62 (human melanoma) cells; conditions: 3T3 vs UACC-62; ref Brandão et al. (2013); cited from earlier work
[10] = tested on: tested tumor cells (786-0, MCF7, HT-29, PC-03, HEP2, B16-F10, UACC-62); experiment: sulforhodamine B (SRB) cytotoxicity assay, results stated over several cell lines; assay type: cell-based; conditions: for cytotoxic activity in words: cell lines as named in the quoted words
Text: as §1, §2

melting point [°C]	SMILES	selectivity index (SI) [1]	GI50 [1] [µM]	selectivity index (SI) [2]	GI50 [2] [µM]	selectivity index (SI) [3]	GI50 [3] [µM]	selectivity index (SI) [4]	GI50 [4] [µM]	selectivity index (SI) [5]	GI50 [5] [µM]	selectivity index (SI) [6]	GI50 [6] [µM]	selectivity index (SI) [7]	GI50 [7] [µM]	GI50 [8] [µM]	cytotoxic activity in words [10]	also measured
–	COc1cccc2c1C(=O)c1c(O)c3c(c(O)c1C2=O)C[C@@](O)(C(=O)CO)C[C@@H]3O[C@H]1C[C@H](N)[C@H](O)[C@H](C)O1 [Doxorubicin, reference compound]	1.23	0.43	6.4	0.086	1.23	0.43	16.0	0.034	0.84	0.65	1.28	0.43	4.5	0.12	0.55	–	selectivity index (SI) [9]: 1.2
183	CCCOC1OC(=O)c2c(O)c(C)c3c(c21)Oc1c(C=O)c(O)cc(C)c1C(=O)O3 (stereo not shown) [compound 2, 8′-O-n-propyl-norstictic acid]	0.43	140	0.15	410	0.13	470	2.03	30	0.94	70	–	> 600	1.2	50	63	did not show activity against the tested tumor cells; also recorded: comparatively low activity against the cancerous cell lines	selectivity index (SI) ([4]; listed as n-propyl): 33.8; GI50 ([4]; listed as n-propyl): 1.28 µM
169	CCCCOC1OC(=O)c2c(O)c(C)c3c(c21)Oc1c(C=O)c(O)cc(C)c1C(=O)O3 (stereo not shown) [compound 3, 8′-O-n-butyl-norstictic acid]	22.21	28.2	47.15	13.3	16.34	38.3	98.11	6.37	78.77	7.94	13.88	45	54.1	11.5	625	–	effect on normal cells in words ([8]; 3T3 cells): lowest effect on 3T3 cells; selectivity index (SI), range over all tumor cells ([10]; all tested tumor cells vs NIH/3T3): 13.88–98.11; GI50 ([10]; all tested tumor cells, read-out: GI50, range over all tumor cells): 6.37 to 45 µM
175	CCCCCOC1OC(=O)c2c(O)c(C)c3c(c21)Oc1c(C=O)c(O)cc(C)c1C(=O)O3 (stereo not shown) [compound 4, 8′-O-n-pentyl-norstictic acid]	0.75	76.2	3.69	15.5	1.50	38.2	6.53	8.77	1.19	48.2	1.03	55.4	1.51	37.8	57.2	low biological activity	–
